Measurements: the NIST ThermoML archive (doi:10.1016/j.jct.2015.08.014)
± gives the expanded uncertainty stated by the source.

Experiment: xn = mol fraction of the nth substance listed
Details: 100 kPa, Liquid; for electrical conductivity: Alternating current cell with electrodes; for mass density: Vibrating tube method; for viscosity: Capillary tube (Ostwald / Ubbelohde) method

CCCC[N+]1(C)CCCC1.N#CN=C=[N-] [1-butyl-1-methylpyrrolidinium dicyanamide] + O=C1CCCO1
Details	electrical conductivity [S/m]
303.15 K, Frequency=0.00857143 MHz, x1 = 0.2493	2.86 ± 0.029
303.15 K, Frequency=0.00857143 MHz, x1 = 0.3029	2.79 ± 0.028
303.15 K, Frequency=0.00857143 MHz, x1 = 0.3845	2.62 ± 0.026
303.15 K, Frequency=0.00857143 MHz, x1 = 0.4985	2.33 ± 0.024
303.15 K, Frequency=0.00857143 MHz, x1 = 0.6954	1.913 ± 0.019
303.15 K, Frequency=0.00857143 MHz, x1 = 0.9013	1.609 ± 0.016
303.15 K, Frequency=0.00857143 MHz, x1 = 1	1.527 ± 0.015
303.15 K, Frequency=0.00892857 MHz, x1 = 0.0463	1.58 ± 0.028
303.15 K, Frequency=0.00892857 MHz, x1 = 0.0987	2.38 ± 0.03
303.15 K, Frequency=0.00892857 MHz, x1 = 0.1449	2.71 ± 0.029
303.15 K, Frequency=0.00892857 MHz, x1 = 0.1859	2.902 ± 0.029
303.15 K, Frequency=0.00892857 MHz, x1 = 0.2493	2.86 ± 0.029
303.15 K, Frequency=0.00892857 MHz, x1 = 0.3029	2.79 ± 0.028
303.15 K, Frequency=0.00892857 MHz, x1 = 0.3845	2.62 ± 0.026
303.15 K, Frequency=0.00892857 MHz, x1 = 0.4985	2.33 ± 0.024
303.15 K, Frequency=0.00892857 MHz, x1 = 0.6954	1.913 ± 0.019
303.15 K, Frequency=0.00892857 MHz, x1 = 0.9013	1.609 ± 0.016
303.15 K, Frequency=0.00892857 MHz, x1 = 1	1.527 ± 0.015
303.15 K, Frequency=0.00961538 MHz, x1 = 0.0463	1.58 ± 0.028
303.15 K, Frequency=0.00961538 MHz, x1 = 0.0987	2.38 ± 0.03
303.15 K, Frequency=0.00961538 MHz, x1 = 0.1449	2.71 ± 0.029
303.15 K, Frequency=0.00961538 MHz, x1 = 0.1859	2.903 ± 0.029
303.15 K, Frequency=0.00961538 MHz, x1 = 0.2493	2.86 ± 0.029
303.15 K, Frequency=0.00961538 MHz, x1 = 0.3029	2.79 ± 0.028
303.15 K, Frequency=0.00961538 MHz, x1 = 0.3845	2.62 ± 0.026
303.15 K, Frequency=0.00961538 MHz, x1 = 0.4985	2.33 ± 0.024
303.15 K, Frequency=0.00961538 MHz, x1 = 0.6954	1.913 ± 0.019
303.15 K, Frequency=0.00961538 MHz, x1 = 0.9013	1.609 ± 0.016
303.15 K, Frequency=0.00961538 MHz, x1 = 1	1.527 ± 0.015
303.15 K, Frequency=0.01 MHz, x1 = 0.0463	1.58 ± 0.028
303.15 K, Frequency=0.01 MHz, x1 = 0.0987	2.38 ± 0.03
303.15 K, Frequency=0.01 MHz, x1 = 0.1449	2.71 ± 0.029
303.15 K, Frequency=0.01 MHz, x1 = 0.1859	2.903 ± 0.029
303.15 K, Frequency=0.01 MHz, x1 = 0.2493	2.86 ± 0.029
303.15 K, Frequency=0.01 MHz, x1 = 0.3029	2.79 ± 0.028
303.15 K, Frequency=0.01 MHz, x1 = 0.3845	2.62 ± 0.026
303.15 K, Frequency=0.01 MHz, x1 = 0.4985	2.33 ± 0.024
303.15 K, Frequency=0.01 MHz, x1 = 0.6954	1.913 ± 0.019
303.15 K, Frequency=0.01 MHz, x1 = 0.9013	1.609 ± 0.016
303.15 K, Frequency=0.01 MHz, x1 = 1	1.527 ± 0.015
313.15 K, Frequency=0.0005 MHz, x1 = 0.0463	1.78 ± 0.032
313.15 K, Frequency=0.0005 MHz, x1 = 0.0987	2.71 ± 0.034
313.15 K, Frequency=0.0005 MHz, x1 = 0.1449	3.13 ± 0.033
313.15 K, Frequency=0.0005 MHz, x1 = 0.1859	3.34 ± 0.034
313.15 K, Frequency=0.0005 MHz, x1 = 0.2493	3.35 ± 0.034
313.15 K, Frequency=0.0005 MHz, x1 = 0.3029	3.302 ± 0.033
313.15 K, Frequency=0.0005 MHz, x1 = 0.3845	3.15 ± 0.032
313.15 K, Frequency=0.0005 MHz, x1 = 0.4985	2.87 ± 0.029
313.15 K, Frequency=0.0005 MHz, x1 = 0.6954	2.421 ± 0.024
313.15 K, Frequency=0.0005 MHz, x1 = 0.9013	2.08 ± 0.021
313.15 K, Frequency=0.0005 MHz, x1 = 1	1.99 ± 0.02
313.15 K, Frequency=0.001 MHz, x1 = 0.0463	1.78 ± 0.032
313.15 K, Frequency=0.001 MHz, x1 = 0.0987	2.71 ± 0.034
313.15 K, Frequency=0.001 MHz, x1 = 0.1449	3.13 ± 0.033
313.15 K, Frequency=0.001 MHz, x1 = 0.1859	3.35 ± 0.034
313.15 K, Frequency=0.001 MHz, x1 = 0.2493	3.36 ± 0.034
313.15 K, Frequency=0.001 MHz, x1 = 0.3029	3.309 ± 0.033
313.15 K, Frequency=0.001 MHz, x1 = 0.3845	3.15 ± 0.032
313.15 K, Frequency=0.001 MHz, x1 = 0.4985	2.87 ± 0.029
313.15 K, Frequency=0.001 MHz, x1 = 0.6954	2.422 ± 0.024
313.15 K, Frequency=0.001 MHz, x1 = 0.9013	2.08 ± 0.021
313.15 K, Frequency=0.001 MHz, x1 = 1	2 ± 0.02
313.15 K, Frequency=0.0015 MHz, x1 = 0.0463	1.79 ± 0.032
313.15 K, Frequency=0.0015 MHz, x1 = 0.0987	2.72 ± 0.034
313.15 K, Frequency=0.0015 MHz, x1 = 0.1449	3.13 ± 0.033
313.15 K, Frequency=0.0015 MHz, x1 = 0.1859	3.35 ± 0.034
313.15 K, Frequency=0.0015 MHz, x1 = 0.2493	3.36 ± 0.034
313.15 K, Frequency=0.0015 MHz, x1 = 0.3029	3.312 ± 0.033
313.15 K, Frequency=0.0015 MHz, x1 = 0.3845	3.16 ± 0.032
313.15 K, Frequency=0.0015 MHz, x1 = 0.4985	2.87 ± 0.029
313.15 K, Frequency=0.0015 MHz, x1 = 0.6954	2.424 ± 0.024
313.15 K, Frequency=0.0015 MHz, x1 = 0.9013	2.09 ± 0.021
313.15 K, Frequency=0.0015 MHz, x1 = 1	2 ± 0.02
313.15 K, Frequency=0.002 MHz, x1 = 0.0463	1.79 ± 0.032
313.15 K, Frequency=0.002 MHz, x1 = 0.0987	2.72 ± 0.034
313.15 K, Frequency=0.002 MHz, x1 = 0.1449	3.13 ± 0.033
313.15 K, Frequency=0.002 MHz, x1 = 0.1859	3.36 ± 0.034
313.15 K, Frequency=0.002 MHz, x1 = 0.2493	3.36 ± 0.034
313.15 K, Frequency=0.002 MHz, x1 = 0.3029	3.314 ± 0.033
313.15 K, Frequency=0.002 MHz, x1 = 0.3845	3.16 ± 0.032
313.15 K, Frequency=0.002 MHz, x1 = 0.4985	2.87 ± 0.029
313.15 K, Frequency=0.002 MHz, x1 = 0.6954	2.424 ± 0.024
313.15 K, Frequency=0.002 MHz, x1 = 0.9013	2.09 ± 0.021

Details	electrical conductivity, 313.15 K [S/m]	mass density, 303.15 K [kg/m3]	viscosity, 313.15 K [mPa·s]
x1 = 0.0463	1.79 ± 0.032	–	–
x1 = 0.0987	2.73 ± 0.034	1099.02 ± 8.8	2.18 ± 0.05
x1 = 0.1449	3.13 ± 0.033	–	–
x1 = 0.1859	3.37 ± 0.034	1083.47 ± 8.7	3.04 ± 0.07
x1 = 0.2493	3.36 ± 0.034	–	–
x1 = 0.3029	3.319 ± 0.033	1066.18 ± 8.5	4.52 ± 0.1
x1 = 0.3845	3.16 ± 0.032	–	–
x1 = 0.4985	2.88 ± 0.029	1044.28 ± 8.4	7.85 ± 0.17
x1 = 0.6954	2.426 ± 0.024	1028.17 ± 8.2	12.31 ± 0.27
x1 = 0.9013	2.09 ± 0.021	1015.57 ± 8.2	18.01 ± 0.41
x1 = 1	2 ± 0.02	1010.64 ± 8.1	21.07 ± 0.48
